Measured values from paper PMC12858405, “Ideal efficacy photoswitching for chromocontrol of TRPC4/5 channel functions in live tissues” (Nature Chemical Biology, 2026).

System: mouse small intestine segments
Experiment: Spontaneous motility of atropine-paralysed intestinal segments, video imaging with 365/447 nm
From the text: Müller, Niemeyer, et al., Schaefer & Thorn-Seshold 2025: Ideal Efficacy Photoswitching of TRPC4/5 in Tissue 7 Spontaneous motility and isometric contractility (Fig. 6)
After sacrificing mice in accordance to the European (Council Directive 2010/63/EU) and German guidelines for the welfare of experimental animals, the abdomen was opened, and intestinal loops were mobilised. Ileal segments were obtained starting 10 mm from the ileocoecal junction. Ileal segments with a length of 3 mm for myography experiments or with a length of 8-12 mm for observation of spontaneous movement were cut out and flushed with carbogen-equilibrated KBRS.
The adventitial layer was carefully peeled off, using a pair of forceps. […]
Spontaneous motility: for macroscopic observation, ileal segments were placed in KBRS-filled 24-well plates, and treated with 300 nM atropine (which has long been known to override the inherent oscillatory bias of the gut nerve system to paralyse digestion) or its solvent. […] A time-lapse movie was recorded, and 365 nm or 447 nm LED were electronically switched to induce photoswitching. The recorded image stack was cut into substacks, covering a single well, each. The temporal variance of the shadow cast by the segments was calculated for consecutive 1 s bins and taken as a measure to obtain the temporal signature of the motility. […]

Structure (SMILES): Cn1c(=O)n(CCCO)c(=O)c2c1nc(Oc1ccc(N=Nc3ccccc3)c(OC(F)(F)F)c1)n2Cc1ccc(Cl)cc1 [AzPico]
- Response of atropine-paralysed small intestine segments to UV illumination (10 nM, 300 nM atropine, stopped by 447 nm): initiated vigorous motions
- Photoresponse of colon segments (treated colon segments): no photoresponse
